Values of other authors, collected in PMC10597649, “Effect of Astragali radix extract on pharmacokinetic behavior of dapagliflozin in healthy and type 2 diabetic rats” (Frontiers in Pharmacology, 2023).

Tested on: P-gp
Set-up: method as in Huang et al., 2012
Conditions: ref Huang et al., 2012; cited from earlier work

CC(=O)O[C@H]1[C@H](O[C@H]2CC[C@]34C[C@]35CC[C@]3(C)[C@@H]([C@@]6(C)CC[C@@H](C(C)(C)O)O6)[C@@H](O)C[C@@]3(C)[C@@H]5C[C@H](O[C@@H]3O[C@H](CO)[C@@H](O)[C@H](O)[C@H]3O)[C@H]4C2(C)C)OC[C@@H](O)[C@@H]1O [Astragaloside II]
P-gp inhibition: potent P-gp inhibitor
